Key:
Viola = assay: Post-emergence test; format: in vivo; conditions: greenhouse, scored after three weeks; for pest or weed control at 500 g/ha / pest or weed control at 250 g/ha: 504 h, read-out: % damage, Viola; for pest or weed control at 500 g/ha: 500 g of ai./ha
Experimental: (§1) Post-emergence Test Solvent: 5 parts by weight of acetone Emulsifier: 1 part by weight of alkylaryl polyglycol ether To produce a suitable preparation of active compound, 1 part by weight of active compound is mixed with the stated amount of solvent, the stated amount of emulsifier is added and the concentrate is diluted with water to the desired concentration. Test plants which have a height of 5-15 cm are sprayed with the preparation of active compound such that the particular amounts of active compounds desired are applied per unit area. The concentration of the spray liquor is chosen so that the particular amounts of active compound desired are applied in 1000 l of water/ha. After three weeks, the degree of damage to the plants is scored visually in % damage in comparison to the untreated control. The Figures Denote: 0%=no effect (like untreated control) 100%=total destruction

Chenopodium = assay: Post-emergence test; format: in vivo; conditions: greenhouse, scored after three weeks; for pest or weed control at 500 g/ha / pest or weed control at 250 g/ha: Chenopodium, 504 h, read-out: % damage, Chenopodium; for pest or weed control at 500 g/ha: 500 g of ai./ha
Experimental: as §1

Wheat = assay: Post-emergence test; format: in vivo; conditions: greenhouse, scored after three weeks; for plant injury at 500 g/ha / plant injury at 250 g/ha: Triticum aestivum, 504 h, read-out: % damage, Wheat; for plant injury at 500 g/ha: 500 g of ai./ha; for % damage, Wheat / plant injury at 250 g/ha: 250 g of ai./ha
Experimental: as §1

Polygonum = assay: Post-emergence test; format: in vivo; conditions: greenhouse, scored after three weeks; for pest or weed control at 500 g/ha / pest or weed control at 250 g/ha: Polygonum, 504 h, read-out: % damage, Polygonum; for pest or weed control at 500 g/ha: 500 g of ai./ha
Experimental: as §1

Amaranthus = assay: Post-emergence test; format: in vivo; conditions: greenhouse, scored after three weeks; for pest or weed control at 500 g/ha / pest or weed control at 250 g/ha: Amaranthus, 504 h, read-out: % damage, Amaranthus; for pest or weed control at 500 g/ha: 500 g of ai./ha
Experimental: as §1

Setaria = assay: Post-emergence test; format: in vivo; conditions: greenhouse, scored after three weeks; for pest or weed control at 500 g/ha / pest or weed control at 250 g/ha: Setaria, 504 h, read-out: % damage, Setaria; for pest or weed control at 500 g/ha: 500 g of ai./ha
Experimental: as §1

## CSc1ccc(C(C)Nc2nc(N)nc(C(F)(F)F)n2)cc1 (racemic) [Example 1, 2-amino4-trifluoromethyl-6-[1-(4-methylthio-phenyl)-ethylamino]-1,3,5-triazine]
other
  melting point: 111 °C

## CSc1ccc(C(C)Nc2nc(NC(C)=O)nc(C(F)(F)F)n2)cc1 (racemic) [Example 2, 2-acetylamino-4-trifluoromethyl-6-[1-(4-methylthio-phenyl)-ethylamino]-1,3,5-triazine]
other
  melting point: 132 °C

## COCc1nc(NC(C)=O)nc(NC(C)c2ccc(Cl)cc2)n1 (stereo not drawn) [drawing 135]
Viola
  pest or weed control at 500 g/ha: 100%
Chenopodium
  pest or weed control at 500 g/ha: 100%
Wheat
  plant injury at 500 g/ha: 10%
Polygonum
  pest or weed control at 500 g/ha: 100%
Amaranthus
  pest or weed control at 500 g/ha: 100%
Setaria
  pest or weed control at 500 g/ha: 70%

## CC(Nc1nc(N)nc(C(F)C(F)(F)F)n1)c1ccc(Cl)cc1 (stereo not drawn) [drawing 124]
Viola; 250 g of ai./ha
  % damage, Viola: 95%
Chenopodium; 250 g of ai./ha
  % damage, Chenopodium: 100%
Wheat
  % damage, Wheat: 10%
Polygonum; 250 g of ai./ha
  % damage, Polygonum: 95%
Amaranthus; 250 g of ai./ha
  % damage, Amaranthus: 100%
Setaria; 250 g of ai./ha
  % damage, Setaria: 90%

## CC(Cl)c1nc(N)nc(NC(C)c2ccc(Cl)cc2)n1 (stereo not drawn) [drawing 120]
Viola; 250 g of ai./ha
  pest or weed control at 250 g/ha: 100%
Chenopodium; 250 g of ai./ha
  pest or weed control at 250 g/ha: 100%
Wheat
  % damage, Wheat: 0%
Polygonum; 250 g of ai./ha
  pest or weed control at 250 g/ha: 100%
Amaranthus; 250 g of ai./ha
  pest or weed control at 250 g/ha: 100%
Setaria; 250 g of ai./ha
  pest or weed control at 250 g/ha: 80%

## CC(=O)Nc1nc(NC(C)c2ccc(Cl)cc2)nc(C(Cl)Cl)n1 (stereo not drawn) [drawing 133]
Viola
  pest or weed control at 500 g/ha: 100%
Chenopodium
  pest or weed control at 500 g/ha: 100%
Wheat
  plant injury at 500 g/ha: 10%
Polygonum
  pest or weed control at 500 g/ha: 100%
Amaranthus
  pest or weed control at 500 g/ha: 100%
Setaria
  pest or weed control at 500 g/ha: 80%

## CC(=O)Nc1nc(NC(C)c2ccc(Cl)cc2)nc(C(C)Cl)n1 (stereo not drawn) [drawing 122]
Viola; 250 g of ai./ha
  pest or weed control at 250 g/ha: 95%
Chenopodium; 250 g of ai./ha
  pest or weed control at 250 g/ha: 100%
Wheat
  plant injury at 250 g/ha: 10%
Polygonum; 250 g of ai./ha
  pest or weed control at 250 g/ha: 100%
Amaranthus; 250 g of ai./ha
  pest or weed control at 250 g/ha: 100%
Setaria; 250 g of ai./ha
  pest or weed control at 250 g/ha: 80%

## CC(Nc1nc(N)nc(C(F)C(F)(F)F)n1)c1ccc(Cl)cc1 (stereo not drawn) [drawing 117]
Viola; 250 g of ai./ha
  pest or weed control at 250 g/ha: 100%
Chenopodium; 250 g of ai./ha
  pest or weed control at 250 g/ha: 100%
Wheat
  plant injury at 250 g/ha: 10%
Polygonum; 250 g of ai./ha
  pest or weed control at 250 g/ha: 100%
Amaranthus; 250 g of ai./ha
  pest or weed control at 250 g/ha: 100%
Setaria; 250 g of ai./ha
  pest or weed control at 250 g/ha: 95%

## COCc1nc(N)nc(NC(C)c2ccc(Cl)cc2)n1 (stereo not drawn) [drawing 118]
Viola; 250 g of ai./ha
  pest or weed control at 250 g/ha: 100%
Chenopodium; 250 g of ai./ha
  pest or weed control at 250 g/ha: 100%
Wheat
  plant injury at 250 g/ha: 10%
Polygonum; 250 g of ai./ha
  pest or weed control at 250 g/ha: 100%
Amaranthus; 250 g of ai./ha
  pest or weed control at 250 g/ha: 100%
Setaria; 250 g of ai./ha
  pest or weed control at 250 g/ha: 80%

## CC(Nc1nc(N)nc(C(C)(Cl)Cl)n1)c1ccc(Cl)cc1 (stereo not drawn) [drawing 126]
Viola
  pest or weed control at 500 g/ha: 100%
Chenopodium
  pest or weed control at 500 g/ha: 100%
Wheat
  plant injury at 500 g/ha: 10%
Polygonum
  pest or weed control at 500 g/ha: 100%
Amaranthus
  pest or weed control at 500 g/ha: 100%
Setaria
  pest or weed control at 500 g/ha: 90%

## COc1ccc(C(C)Nc2nc(N)nc(C(F)(F)F)n2)cc1 (stereo not drawn) [drawing 138]
Viola
  pest or weed control at 500 g/ha: 100%
Chenopodium
  pest or weed control at 500 g/ha: 100%
Wheat
  plant injury at 500 g/ha: 0%
Polygonum
  pest or weed control at 500 g/ha: 100%
Amaranthus
  pest or weed control at 500 g/ha: 100%
Setaria
  pest or weed control at 500 g/ha: 100%

## CC(Nc1nc(N)nc(C(F)(F)F)n1)c1ccc([S+](C)[O-])cc1 (racemic) [Example 3, 2-amino-4-trifluoromethyl-6-[1-(4-methylsulphinyl-phenyl)-ethylamino]-1,3,5-triazine]
other
  melting point: 220 °C (dec.)

## CC(Nc1nc(N)nc(C(F)(F)C(F)(F)F)n1)c1ccc(Cl)cc1 (stereo not drawn)
Viola; 250 g of ai./ha
  pest or weed control at 250 g/ha: 100%
Chenopodium; 250 g of ai./ha
  pest or weed control at 250 g/ha: 100%
Wheat
  plant injury at 250 g/ha: 10%
Polygonum; 250 g of ai./ha
  pest or weed control at 250 g/ha: 100%
Amaranthus; 250 g of ai./ha
  pest or weed control at 250 g/ha: 100%
Setaria; 250 g of ai./ha
  pest or weed control at 250 g/ha: 100%

— patent US6440903B1, “Substituted 2,4-diamino-1,3,5-triazines as herbicides” (Bayer Aktiengesellschaft, priority 1996, dated 2002)
